From paper PMC7919047, “Trichilianones A-D, Novel Cyclopropane-Type Limonoids from Trichilia adolfi” (Molecules, 2021)
Converted amounts (≈) assume the structure as drawn. Where two headings read alike, the source gives them in different places.

What was measured:
[1] = system: L. braziliensis promastigotes; assay: In vitro leishmanicidal activity against promastigotes (optical density, 72 h); assay type: cell-based; conditions: Leishmania braziliensis, read-out: Leishmanicidal activity L.b, IC50
Procedure: (§1) Leishmanicidal activity was assayed according to Williams, with some modification. Promastigotes of Leishmania: L. amazonensis, Clone 1, NHOM-BR-76-LTB-012 (Lma, donated by the Paul Sabatier Université, France) and L. braziliensis M2904 C192 RJA (M2904, donated by Dr. Jorge Arévalo from Universidad Peruana Cayetano Heredia, Peru). The strains were cultured in Schneider’s insect medium (pH 6.2), supplemented with 10% FBS and incubated in 96-microwell plates at 26 °C. Briefly, promastigotes in logarithmic phase of growth, at concentration of 106 parasites/mL, were exposed to samples dissolved in DMSO (1%) at different concentrations (3.1–100 μg/mL). Miltefosine (3.1–100 μg/mL, IDPS, France) was used as control drug. The microwell plates were incubated for 72 h at 26 °C, the optical density of each well was measured and the IC50 values calculated. All assays were performed in triplicate.

[2] = system: Leishmania amazonensis promastigotes; assay: as above; assay type: cell-based; conditions: read-out: Leishmanicidal activity L.a., IC50
Procedure: as §1

[3] = Cytotoxicity in Raw 264.7 murine macrophage cell cultures (resazurin, 72 h); assay type: cell-based; conditions: mouse, Raw 264.7 murine macrophages, 72 h at 37 °C, 6.2–200 μg/mL, triplicate
Procedure: The Raw 264.7 murine macrophage cell line was purchased from the American-Type Culture Collection (ATCC-TIB71). The cells were maintained in DMEM-HG medium supplemented with 10% fetal bovine serum, 100 U/mL of penicillin and 100 μg/mL of streptomycin, and sodium bicarbonate (2.2 g/L) in humidified atmosphere at 37 °C with 5% CO2. Samples were prepared as described above and added (in 100 μL DMSO) at different concentrations (6.2–200 μg/mL). Medium blank, control drugs and cell growth controls were included to evaluate cell viability. The plates were incubated for 72 h at 37 °C with 5% CO2. After incubation for the indicated time, the cells were washed, after which 10 μL of Resazurin reagent (2.0 mM) was added. They were further incubated at 37 °C for 3 h in a humidified incubator. The IC50 values were assessed using a fluorometric reader (540 nm excitation, 590 nm emission) and Gen5 software. All assays were performed in triplicate.

Row | Compound | IC50 ([1]; 72 h) [µg/mL] | IC50 ([2]; 72 h) [µg/mL] | IC50 at 72 h ([3]; Raw 264.7 macrophage cells) [µg/mL] | melting point [°C] | IC50 ([1]; L. braziliensis M2904 C192 RJA promastigotes, 72 h at 26 °C, 3.1–100 μg/mL, triplicate) [µg/mL] | IC50 ([2]; L. amazonensis Clone 1 NHOM-BR-76-LTB-012 promastigotes, 72 h at 26 °C, 3.1–100 μg/mL, triplicate) [µg/mL] | IC50 at 72 h [3] [µg/mL]
1 | COC(=O)CC1C(C)(C)OC(=O)CC2OC3(C)C45C(=O)CC(c6ccoc6)C4(C)C(OC(C)=O)C(OC(=O)C(C)C)C35C21C (stereo not shown) [Compound 3, Trichilianone C] | > 100 | > 100 | 70 ± 27 (≈ 114 µM) | 151 |  |  | 
2 | CCCCCCCCCCCCCCCCOP(=O)([O-])OCC[N+](C)(C)C [Miltefosine, reference compound] |  |  | 21 ± 2 (≈ 51.5 µM) |  | 4.1 ± 0.5 (≈ 10.1 µM) | 5 ± 0.2 (≈ 12.3 µM) | 
3 | COC(=O)CC1C(C)(C)OC(=O)CC2OC3(C)C45C(=O)CC(c6ccoc6)C4(C)C(OC(C)=O)C(O)C35C21C (stereo not shown) [Compound 2, Trichilianone B] | > 100 | > 100 | 75 ± 18 (≈ 138 µM) | 145 |  |  | 
4 | COC(=O)CC1C(C)(C)OC(=O)C=C2OC3(C)C45C(=O)CC(c6ccoc6)C4(C)C(OC(C)=O)C(O)C35C21C (stereo not shown) [Compound 1, Trichilianone A] | > 100 | > 100 |  | 181 |  |  | 64 ± 23 (≈ 118 µM)
5 | COC(=O)CC1C(C)(C)OC(=O)C=C2OC3(C)C45C(=O)CC(C6=CCOC6=O)C4(C)C(OC(C)=O)C(O)C35C21C (stereo not shown) [Compound 4, Trichilianone D] | > 100 | > 100 |  | 175 |  |  | 76 ± 23 (≈ 136 µM)
